Data as given in US20050228180A1, “Alpha, omega-dicarboximide derivatives as useful uro-selective a1a adrenoceptor blockers” (priority 2002, published 2005).
Structures can show the parent of a compound that is named as a salt.

Experiments:
[1] = target: T1, α1A adrenoceptor (Rattus norvegicus, UniProt P43140); assay: Radioligand binding, [3H] prazosin displacement, rat submaxillary membranes; settings: for Ki: [3H] prazosin displacement, rat submaxillary membranes, read-out: Affinity (Ki) α1A (Rat Submaxillary); for α1B/α1A: ratio of binding affinities, rat liver / rat submaxillary
T1 construct: from tissue; host or cells: rat submaxillary gland membranes
T1 sequence (P43140 1-466): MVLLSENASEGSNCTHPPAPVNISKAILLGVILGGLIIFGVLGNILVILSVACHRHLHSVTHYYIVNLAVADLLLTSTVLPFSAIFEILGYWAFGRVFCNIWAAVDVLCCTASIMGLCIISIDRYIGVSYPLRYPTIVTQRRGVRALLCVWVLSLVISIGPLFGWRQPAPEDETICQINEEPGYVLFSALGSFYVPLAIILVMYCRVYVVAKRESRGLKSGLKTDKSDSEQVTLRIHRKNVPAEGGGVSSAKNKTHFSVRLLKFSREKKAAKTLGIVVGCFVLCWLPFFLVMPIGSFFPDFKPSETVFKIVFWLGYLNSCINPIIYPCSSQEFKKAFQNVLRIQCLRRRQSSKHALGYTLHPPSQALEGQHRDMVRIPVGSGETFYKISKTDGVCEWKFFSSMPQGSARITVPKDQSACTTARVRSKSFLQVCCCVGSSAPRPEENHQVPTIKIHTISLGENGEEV
Method: (§1) Receptor binding assays were performed using native a-adrenoceptors. The affinity of different compounds for α1A and α1B adrenoceptor subtypes was evaluated by studying their ability to displace specific [^3H] prazosin binding from the membranes of rat submaxillary and liver respectively (Michel et al., Br J Pharmacol, 1989: 98:883). The binding assays were performed according to U+Prichard et al. (Eur J Pharmacol, 1978; 50:87 with minor modifications.
(§2) Submaxillary glands were isolated immediately after sacrifice. The liver was perfused with buffer (Tris HCl 50 mM, NaCl 100 mM, 10 mM EDTA pH 7.4). The tissues were homogenised in 10 volumes of buffer (Tris HCl 50 mM, NaCl 100 mM, 10 mM EDTA pH 7.4). The homogenate was filtered through two layers of wet gauge and filtrate was centrifuged at 500 g for 10 min. The supernatant was subsequently centrifuged at 40,000 g for 45 min. The pellet thus obtained was resuspended in the same volume of assay buffer (Tris HCl 50 mM, 5 mM EDTA pH 7.4) and was stored at −70° C. until the time of assay.
(§3) The membrane homogenates (150-250 μg protein) were incubated in 250 μl of assay buffer (Tris HCl 50 mM, EDTA 5 mM, pH 7.4) at 24-25° C. for 1 hour. Non specific binding was determined in the presence of 300 nM prazosin. The incubation was terminated by vacuum filtration over GF/B fibre filters. The filters were then washed with ice cold 50 mM Tris HCl buffer (pH 7.4). The filtermats were dried and bound radioactivity retained on filters was counted. The IC50 and Kd were estimated by using the non-linear curve-fitting program using G Pad Prism software. The value of inhibition constant Ki was calculated from competitive binding studies by using Cheng & Prusoff equation (Cheng & Prusoff, Biochem Pharmacol, 1973, 22: 3099-3108), Ki=IC50/(1+L/Kd) where L is the concentration of [^3H] prazosin used in the particular experiment (Table 1).

[2] = target: T2, α1B adrenoceptor (Rattus norvegicus, UniProt P15823); assay: Radioligand binding, [3H] prazosin displacement, rat liver membranes; settings: read-out: Affinity (Ki) α1B (Rat Liver)
T2 construct: from tissue; host or cells: rat liver membranes
T2 sequence (P15823 1-515): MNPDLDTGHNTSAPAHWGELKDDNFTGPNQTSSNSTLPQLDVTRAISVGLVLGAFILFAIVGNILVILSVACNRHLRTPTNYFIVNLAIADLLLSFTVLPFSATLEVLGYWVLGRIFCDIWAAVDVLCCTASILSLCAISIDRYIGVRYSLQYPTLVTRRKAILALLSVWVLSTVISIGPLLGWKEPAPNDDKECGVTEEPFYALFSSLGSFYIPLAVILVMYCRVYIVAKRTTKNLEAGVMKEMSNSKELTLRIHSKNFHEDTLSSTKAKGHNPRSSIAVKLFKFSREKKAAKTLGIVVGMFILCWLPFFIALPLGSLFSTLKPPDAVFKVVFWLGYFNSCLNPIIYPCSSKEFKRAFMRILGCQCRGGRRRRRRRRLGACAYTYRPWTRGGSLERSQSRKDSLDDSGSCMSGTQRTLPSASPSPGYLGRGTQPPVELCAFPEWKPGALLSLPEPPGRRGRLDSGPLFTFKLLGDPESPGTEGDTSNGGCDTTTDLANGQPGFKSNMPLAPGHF
Method: as §1, §2, §3

Row | Compound | Ki [1] [nM] | α1B/α1A [1] | Ki [2] [nM]
1 | 1-[4-(2-Ethoxyphenyl)piperazin-1-yl]-3-(2,6-dioxopiperadin-1-yl)ethane hydrochloride [compound 05] | 70 | 20 | 1380
2 | Cl.O=C1C2CC=CCC2C(=O)N1CC(O)CN1CCN(c2ccccc2O)CC1 (centres unmarked) [Compound No. 14, 2-[3-{4-(2-Hydroxyphenyl)piperazin-1-yl}-2-hydroxypropyl]-3a,4,7,7a-tetrahydro-1H-isoindole-1,3(2H)-dione hydrochloride] | 49 | 10 | 504
3 | CCOc1ccccc1N1CCN(CCN2C(=O)C3CC=CCC3C2=O)CC1.Cl (centres unmarked) [Compound No. 15, 2-[2-{4-(2-Ethoxyphenyl)piperazin-1-yl}ethyl]-3a,4,7,7a-tetrahydro-1H-isoindole-1,3(2H)-dione hydrochloride] | 35 | 10 | 346
4 | Cl.O=C1C2CC=CCC2C(=O)N1CCN1CCN(c2ccccc2OCC(F)(F)F)CC1 (centres unmarked) [Compound No. 16, 2-[2-{4-(2-(2,2,2-Trifluoroethoxy)phenyl)piperazin-1-yl}ethyl]-3a,4,7,7a-tetrahydro-1H-isoindole-1,3(2H)-dione hydrochloride] | 19 | 14 | 267
5 | CCOc1ccccc1N1CCN(CCCN2C(=O)C3CC(O)C(Cl)CC3C2=O)CC1.Cl (centres unmarked) [Compound No. 17, hydrochloride] | 1.6 |  | 80
6 | O=C1C2CC=CCC2C(=O)N1CCC[N+]1([O-])CCN(c2ccccc2O)CC1 (centres unmarked) [Compound No. 22, 2-[3-{4-(2-Hydroxyphenyl)piperazin-1-yl, 1-N-oxide}propyl]-3a,4,7,7a-tetrahydro-1H-isoindole-1,3(2H)-dione] | 1590 | 0.7 | 1090
7 | CCOc1ccc(O)cc1N1CCN(CCCN2C(=O)C3CC=CCC3C2=O)CC1 (centres unmarked) [Compound No. 24, 2-[3-{4-(2-Ethoxy-5-hydroxyphenyl)piperazin-1-yl}propyl]-3a,4,7,7a-tetrahydro-1H-isoindole-1,3-(2H)-dione hydrochloride] | 5.9 | 84 | 495
8 | CC(C)Oc1cccc(O)c1N1CCN(CCCN2C(=O)C3CC=CCC3C2=O)CC1 (centres unmarked) [Compound No. 27, 2-[3-{4-(2-isopropoxy-6-hydroxyphenyl)piperazin-1-yl}propyl]-3a,7,7a-tetrahydro-1H-isoindole-1,3(2H)-dione hydrochloride] | 306 | 16 | > 5000
9 | CC(C)Oc1c(O)cccc1N1CCN(CCCN2C(=O)C3CC=CCC3C2=O)CC1 (centres unmarked) [Compound No. 35, 2-[3-{4-(2-Isopropoxy-3-hydroxyphenyl)piperazin-1-yllpropyl]-3a,4,7,7a-tetrahydro-1H-isoindole-1,3(2H)-dione hydrochloride] | 38 | 15 | 582
10 | CC(C)Oc1ccc(O)cc1N1CCN(CCCN2C(=O)CCCC2=O)CC1 [Compound No. 36, 1-[4-(2-Isopropoxy-5-hydroxyphenyl)piperazin-1-yl]-3-(2,6-dioxopiperdin-1-yl)piperazin-1-yl]-3-(2,6-dioxopiperidin-1-yl)propane hydrochloride] | 11 | 52 | 571
11 | CC(C)Oc1cccc(O)c1N1CCN(CCCN2C(=O)CCCC2=O)CC1 [Compound No. 37, 1-[4-(2-Isopropoxy-6-hydroxyphenyl)piperazin-1-yl]-3-(2,6-dioxopiperdin-1-yl)propane hydrochloride] | 462 | >2 | > 1000
12 | CC(C)Oc1c(O)cccc1N1CCN(CCCN2C(=O)CCCC2=O)CC1.Cl [Compound No. 38, 1-[4-(2-Isopropoxy-3-hydroxyphenyl)piperazin-1-yl]-3-(2,6-dioxopiperidin-1-yl)propane hydrochloride] | 141 | 5 | 760
13 | Cl.O=C1CCCC(=O)N1CC(O)CN1CCN(c2ccccc2OCC(F)(F)F)CC1 (centres unmarked) [Compound No. 39, 1-[4-{2-(2,2,2-Trifluoroethoxy)phenyl)piperazin-1-yl]-2-hydroxy-3-(2,6-dioxopiperidin-1-yl)propane hydrochloride] | 6.9 | 200 | 1380
14 | CC(C)Oc1ccccc1NCCNCCCN1C(=O)[C@H]2CC=CC[C@H]2C1=O [Compound No. 42, 2-[N-{N′-(2-Isopropoxyphenyl)aminoethyl}aminopropyl]-3a,4,7,7a-tetrahydro-1H-isoindole-1,3(2H)-dione hydrochloride] | 19 | 41 | 781
15 | Cl.O=C1CCCC(=O)N1CC(O)CN1CCN(c2ccccc2O)CC1 (centres unmarked) [Compound No. 44, 1-[4-(2-hydroxyphenyl)piperazin-1-yl]-2-hydroxy-3-(2,6-dioxopiperidin-1-yl]propane hydrochloride] | 594 | 3 | 1740
16 | O=C1C2CC=CCC2C(=O)N1CCCN1CCN(c2ccccc2-c2ccccc2)CC1 (centres unmarked) [Compound No. 45, 2-[3-{4-(2-Biphenyl)piperazin-1-yl}propyl]-3a,4,7,7a-tetrahydro-1H-isoindole-1,3(2H)-dione hydrochloride] | 8.6 | 14 | 120
17 | CC(=O)N(CCCN1C(=O)C2CC=CCC2C1=O)CCNc1ccccc1OC(C)C.Cl (centres unmarked) [Compound No. 46, 2-[N-{N′-(2-Isopropoxyphenyl)aminoethyl}acetylaminopropyl]-3a,4,7,7a-tetrahydro-1H-isoindole-1,3(2H)-dione hydrochloride] | 379 | >3 | > 1000
18 | CC(=O)N(CCNCCCN1C(=O)C2CC=CCC2C1=O)c1ccccc1OC(C)C.Cl (centres unmarked) [Compound No. 47, 2-[N-{N′-(2-Isopropoxyphenyl)acetylaminoethyl}aminopropyl]-3a,4,7,7a-tetrahydro-1H-isoindole-1,3(2H)-dione hydrochloride] | 299 | >3 | > 1000
19 | CC(C)Oc1ccccc1NCCN(CCO)CCCN1C(=O)[C@H]2CC=CC[C@H]2C1=O [Compound No. 48, 2-[N-[{N′-(2-Isopropoxyphenyl)aminoethyl}hydroxyethyl]aminopropyl]-3a,4,7,7a-tetrahydro-1H-isoindole-1,3(2H)-dione hydrochloride] | 91 | >11 | > 1000
20 | CC(C)Oc1ccccc1N1CCN(C(=O)CCN2C(=O)CCCC2=O)CC1.Cl [Compound No. 49, 1-[4(2-Isopropoxyphenyl)piperazin-1-yl]-1-oxo-3-(2,6-dioxopiperidin-1-yl)propane hydrochloride] | > 1000 | 1 | > 1000
21 | CC(C)Oc1ccccc1NCCN(CC=O)CCCN1C(=O)C2CC=CCC2C1=O (centres unmarked) [Compound No. 50, 2-[N-{N′-(2-Isopropoxyphenyl)aminoethyl}acetaldehyde-aminopropyl]-3a,4,7,7a-tetrahydro-1H-isoindole-1,3(2H)-dione] | 47 | >21 | > 1000
22 | CC(C)Oc1ccccc1N(CCO)CCN(CCO)CCCN1C(=O)C2CC=CCC2C1=O (centres unmarked) [Compound No. 51] | 662 | >23 | > 15000
